# Measured values reported in US12202840B2, “Compounds for the treatment or alleviation of disorders associated with Tau aggregates” (AC Immune SA, priority 2018, dated 2025).
# System: rTg4510 mice
# Test: Cortex size (cortical atrophy), study of Example 2
# Assay type: in vivo
# Details: once daily by gavage, 7 and 20 mg/kg, statistical significance at the higher dose, FIG. 6A
# Method: Double transgenic rTg4510 mice are an aggressive Tauopathy model expressing the full-length human Tau carrying the P301L mutation (Tau4R0N-P301L) under the control of the tetracycline-inducible CaMKII promoter (Ramsden et al., 2005). Wild-type animals and single transgenic mice expressing only the tetracycline-controlled transactivator (tTA) were used as genotype controls. Mice were treated and tested. The study comprised 4 treatment groups (n=15 female mice/group) with the following group distribution (see Table 6). Compound of the invention or vehicle control were administered once daily by gavage for 12 weeks starting at the age of 5.5 weeks. The Morris Water Maze (MWM) behavioral test was performed after 12.5 weeks of treatment over 5 consecutive days. During MWM testing daily dosing was continued. Behavioral testing (MWM) and biochemical quantification of sarkosyl-insoluble Tau were performed on all mice (n=15 mice/group). Measurement of cortical atrophy and histology for Iba1 were performed on 10 mice/group.
# After behavioral testing, mice were deeply anesthetized by standard injectable anesthesia and transcardially perfused with cold PBS. Brains were then removed and hemi-sagitally hemisected. […] A systematic random set of sections from seven sagittal levels per animal was used to quantify the cortex size.
compound,measurement,value
CN(C)[C@@H]1CCc2c(c3ccc(Nc4ccc5sc(N6CCOCC6)nc5c4)nc3n2C)C1 [Example 2],cortex size,dose-dependent increase
